The values below come from patent US11091442B2, “Fluorosulfonyl-containing compound, intermediate thereof, preparation method therefor and use thereof” (SHANGHAI INSTITUTE OF ORGANIC CHEMISTRY, CHINESE ACADEMY OF …, priority 2017, dated 2021).

Molecules are shown by their SMILES. Values joined by “and” are separate entries in the source; they are usually repeats but may differ in a detail not shown here. Equal entries are not always repeated.

Series [1] is described as follows: Stability in different humidity environments (sealed plastic bottles, 231 days of observation and testing). In kind it is physicochemical. The conditions noted are these: after 231 days. As to the method:
This embodiment studies the stability of 1-(fluorosulfonyl)-2,3-dimethyl-1H-imidazolium trifluoromethanesulfonate in different humidity environments.
Experimental method: 1-(fluorosulfonyl)-2,3-dimethyl-1H-imidazolium trifluoromethanesulfonate was sampled (4.521 g, 4.298 g, 4.273 g) and placed into three plastic bottles (20 mL), which were then sealed with parafilm membrane. The three plastic bottles were placed on an experimental table (22° C.), in a refrigerator (4° C.) or in a dryer (22° C.).

The nature of series [2]: Thermal stability on a melting point meter. The following applies: temperature set at 129-240° C., heating gradient 1.0° C./min. In kind it is physicochemical. As to the method: This embodiment studies the melting range and thermal stability of 1-(fluorosulfonyl)-2,3-dimethyl-1H-imidazolium trifluoromethanesulfonate
Experimental method: On a melting point meter, the temperature was set at 30-70° C. and the heating gradient at 0.5° C./min, the melting range of the substance of the embodiment was measured to be 62.1-64.2° C.: the temperature was set at 129-240° C. and the heating gradient at 1.0° C./min, the substance slowly bubbled at 135.2° C., and then turned from colorless to pale yellow at 176.5° C., turned to yellow at 185.6° C., turned to dark yellow at 189.9° C., and finally turned to black at 199.4° C.

Series [3] in a line: Stability in deionized water, 19F-NMR tracking of the S-F signal. In kind it is physicochemical. The following applies: for S-F signal of the solution: deionized water, room temperature. Here is the method:
This embodiment studies the stability of 1-(fluorosulfonyl)-2,3-dimethyl-1H-imidazolium trifluoromethanesulfonate in deionized water
The experimental method: 1-(fluorosulfonyl)-2,3-dimethyl-1H-imidazolium trifluoromethanesulfonate ([…], 0.1 mmol) was dissolved in deionized water (1 mL) at room temperature to prepare a solution, and the pH value of the obtained solution was measured to be pH=1, ^19F-NMR tracked the change of the S—F signal of the solution, and the results are shown in Table 3.

For `O=S(=O)(F)c1ccc(-c2ccc(S(=O)(=O)F)cc2)cc1`, the melting point was in the range of 95.3 to 96.6 °C. Same read-out and setting: to `COc1cc(C(=O)NC2CCCN(S(=O)(=O)F)C2)cc(OC)c1OC` (centres unmarked) belongs 184 to 186 °C; to `CC(=O)Nc1ccc(OS(=O)(=O)F)cc1`, 150.3 to 152 °C; to `Cc1ccc2c(Cl)cc(Cl)c(OS(=O)(=O)F)c2n1`, 64.6 to 66.2 °C. Same read-out and setting: to `O=C(/C=C/c1ccc(S(=O)(=O)F)cc1)c1ccccc1` belongs 92.8 to 94.2 °C. As to `Cc1n(S(=O)(=O)F)cc[n+]1C.O=S(=O)([O-])C(F)(F)F` [Compound 4, 1-(fluorosulfonyl)-2,3-dimethyl-1H-imidazolium trifluoromethanesulfonate], the melting point fell in the range of 58 to 60 °C. Moreover, the “S-F signal in 19F NMR spectrum decreased by” value in series [1] (placed in the dryer (22° C.)) is reported as “by 4%”. Also, in series [1] (placed in the refrigerator (4° C.)), the “S-F signal in 19F NMR spectrum decreased by” value is on record as “decreased by 1%”. Moreover, the “S-F signal in 19F NMR spectrum decreased by” value in series [1] (placed on the experimental table (22° C.)) is listed as “by 25%”. In series [2], the “temperature at which the substance slowly bubbled” value was found to be 135.2 °C, the “temperature at which the substance turned from colorless to pale yellow” value came out at 176.5 °C, the “temperature at which the substance turned to black” value was found to be 199.4 °C and the “temperature at which the substance turned to dark yellow” value is 189.9 °C. In series [2], the “temperature at which the substance turned to yellow” value was 185.6 °C. In addition, the “pH value of the obtained solution” value in series [3] (36 mg, 0.1 mmol dissolved in deionized water (1 mL) at room temperature) is listed as 1. Further, in series [3] (standing time 12 min), the “S-F signal of the solution” value stood at 0.77. The “S-F signal of the solution” value in series [3] (standing time 30 min) was found to be 0.58. In series [3] (standing time 58 min), the “S-F signal of the solution” value amounted to 0.35. Moreover, in series [3] (standing time 2 h), the “S-F signal of the solution” value came out at 0.11. For the same compound, in series [3] (standing time 2 h 46 min), the “S-F signal of the solution” value worked out at 0.05. Compound `CC(C)(C)OC(=O)[C@H](NS(=O)(=O)F)c1ccccc1` yielded a melting point of 81 to 84 °C. Still for that read-out and setting: to `O=S(=O)(F)N[C@@H]1CCC[C@H]1OCc1ccccc1` belongs 76 to 78 °C; to `COc1cc(C=O)ccc1OS(=O)(=O)F`, 50.8 to 51.8 °C.

In turn, `O=S(=O)(F)N1CCN(S(=O)(=O)F)CC1` registered a melting point of 246 to 248 °C.

On to `CC(=O)c1c(OS(=O)(=O)F)ccc2c(C)cc(=O)oc12`, for which the melting point is 163.8 to 165.2 °C. The compound `CN1CN(S(=O)(=O)F)c2ccccc21.O=S(=O)(O)C(F)(F)F` gave a melting point of 121 to 125 °C. Same read-out and setting: to `COc1cc(/C=C/c2ccc(OS(=O)(=O)F)cc2)cc(OC)c1` belongs 80.1 to 81.1 °C; to `O=S(=O)(F)N1CCC(Cc2ccccc2)CC1`, 54 to 58 °C and 58 to 61 °C and 57 to 61 °C.

For `CC(C)c1n(S(=O)(=O)F)cc[n+]1C.O=S(=O)([O-])C(F)(F)F`, the melting point is 77 to 80 °C.

In turn, `O=c1ccc2cc(OS(=O)(=O)F)ccc2o1` gave a melting point of 85.3 to 87.9 °C. For `O=[N+]([O-])c1ccc(OS(=O)(=O)F)c2ncccc12`, the melting point was in the range of 86.9 to 87.9 °C.

Compound `Cc1ccc(C2CCCN2S(=O)(=O)F)cc1` (centres unmarked) yielded a melting point of 53 to 57 °C. With `O=S(=O)(F)NCCc1ccc(O)cc1`, the melting point is 90 to 92 °C. On the same count and under the same terms, to `O=S(=O)(F)N1CCC(c2ccccc2)CC1` belongs 83 to 84 °C; to `O=C(NC1CCN(S(=O)(=O)F)CC1)c1ccccc1`, 205 to 207 °C.

As a reminder, the melting point is the temperature of the solid-liquid transition.
